Tested on: Spirulina platensis
Test: Delayed luminescence of S. platensis exposed to simazine, fitted by Formula (1)
Format: cell-based
Set-up: Fitting formula value c3 / Fitting formula value a1 / Fitting formula value b1 / Fitting formula value c1 / Fitting formula value a2 / Fitting formula value b2 / Fitting formula value c2 / Fitting formula value a3 / Fitting formula value b3: unit not given here
Details: for luminescence amount of delayed luminescence, exposed vs not exposed: 15 minutes after exposure (FIG. 10); for Fitting formula value a1 / Fitting formula value a2 / Fitting formula value a3 / Fitting formula value b1 / Fitting formula value b2 / Fitting formula value b3 / Fitting formula value c1 / Fitting formula value c2 / Fitting formula value c3: 15 minutes after exposure
Protocol: In the present example, the measurement of delayed luminescence was carried out as follows. 2.5 mL of an S. platensis cell suspension, adjusted to have an absorbance at 660 nm of 0.05 in a general, 10×10 mm spectrometric cell, was exposed to simazine of any of various concentrations and left to stand for 15 minutes under a white fluorescent lamp of a light amount of 50 μmol·m−2·s−1. Thereafter, inside the measuring device 10, a red light (660 nm) of approximately 300 μmol·m−2·s−1 was illuminated for 10 seconds from the light source 18 as the excitation light for making delayed luminescence be emitted and then the delayed luminescence emitted after extinguishing of the excitation light was recorded for 50 seconds at 0.1 second intervals.
In the present example, the above-described Formula (1) was used for fitting. As examples for description of the fitting results, the measurement result for the “Not exposed” case is shown in FIG. 11A and a graph of the results of fitting to the measurement data are shown in FIG. 11B. In FIG. 11B, f1(t), f2(t), and f3(t) are respectively the first function, the second function, and the third function in Formula (1). From FIG. 11, it can be understood that the delayed luminescence measurement data can be fitted by a plurality of hill-shaped functions.
By the fitting, the function coefficients, ai, bi, and ci (i=1, 2, 3) are determined.

[1] = simazine exposure concentration 5 μg/L
[2] = simazine exposure concentration 25 μg/L
[3] = simazine exposure concentration 50 μg/L
[4] = simazine exposure concentration 100 μg/L

CCNc1nc(Cl)nc(NCC)n1 [Simazine, simazine]
variation of evaluation value c3 with simazine exposure concentration (S. platensis (FIG. 12)): decreases in accordance with the simazine exposure concentration
luminescence amount of delayed luminescence, exposed vs not exposed (early time period (near 0 seconds) of time after excitation): increases
luminescence amount of delayed luminescence, exposed vs not exposed (later time period (5 seconds onward) after excitation): decreases
Fitting formula value a1 [1]: 0.2
Fitting formula value a2 [1]: 0.01
Fitting formula value a3 [1]: 0.006
Fitting formula value b1 [1]: −0.5
Fitting formula value b2 [1]: −0.5
Fitting formula value b3 [1]: 22
Fitting formula value c1 [1]: 4.5
Fitting formula value c2 [1]: 3.5
Fitting formula value c3 [1]: 2.2
Fitting formula value a1 [2]: 0.2
Fitting formula value a2 [2]: 0.018
Fitting formula value a3 [2]: 0.005
Fitting formula value b1 [2]: −0.5
Fitting formula value b2 [2]: −0.5
Fitting formula value b3 [2]: 22
Fitting formula value c1 [2]: 4.8
Fitting formula value c2 [2]: 3.8
Fitting formula value c3 [2]: 1.6
Fitting formula value a1 [3]: 0.3
Fitting formula value a2 [3]: 0.02
Fitting formula value a3 [3]: 0.01
Fitting formula value b1 [3]: −0.5
Fitting formula value b2 [3]: −0.5
Fitting formula value b3 [3]: 21
Fitting formula value c1 [3]: 5
Fitting formula value c2 [3]: 3.8
Fitting formula value c3 [3]: 1.2
Fitting formula value a1 [4]: 0.4
Fitting formula value a2 [4]: 0.024
Fitting formula value a3 [4]: 0.02
Fitting formula value b1 [4]: −0.5
Fitting formula value b2 [4]: −0.5
Fitting formula value b3 [4]: 20
Fitting formula value c1 [4]: 5.5
Fitting formula value c2 [4]: 3.8
Fitting formula value c3 [4]: 0.7

— patent publication US20100159496A1, “EVALUATION METHOD FOR PHOTOSYNTHESIS SAMPLE, EVALUATION SYSTEM FOR PHOTOSYNTHESIS SAMPLE, AND EVALUATION PROGRAM FOR PHOTOSYNTHESIS SAMPLE” (HAMAMATSU PHOTONICS K.K., priority 2006, published 2010)
